Values of other authors in PMC8513935.

Assays:
[1] = experimental, compiled by the authors from the literature (the ESI cites the sources)
[2] = derived by the authors as gas->solvent minus gas->water (a hypothetical dry solvent; the ESI), not a two-phase measurement
[3] = log P octanol/water from commercial databases, averaged (the ESI); details: Octanol (wet), 25 C

Structure (SMILES): CC(C)C(C)C(C)C
- log K of transfer, gas to solvent ([1]; 1,2-Dichloroethane, 25 C): 3.19 log10 K
- log K of transfer, gas to solvent ([1]; Acetonitrile, 25 C): 2.51 log10 K
- log K of transfer, gas to solvent ([1]; Butan-1-ol, 25 C): 3.1 log10 K
- log K of transfer, gas to solvent ([1]; Butanone, 25 C): 3.22 log10 K
- log K of transfer, gas to solvent ([1]; Butyronitrile, 25 C): 3.01 log10 K
- log K of transfer, gas to solvent ([1]; CCl4, 25 C): 3.72 log10 K
- log K of transfer, gas to solvent ([1]; Chlorobenzene, 25 C): 3.69 log10 K
- log K of transfer, gas to solvent ([1]; Chloroform, 25 C): 3.63 log10 K
- log K of transfer, gas to solvent ([1]; Cyclohexanone, 25 C): 3.15 log10 K
- log K of transfer, gas to solvent ([1]; Dichloromethane, 25 C): 3.47 log10 K
- log K of transfer, gas to solvent ([1]; Ethanol, 25 C): 2.94 log10 K
- log K of transfer, gas to solvent ([1]; Hexadecane, 25 C): 3.48 log10 K
- log K of transfer, gas to solvent ([1]; Hexane, 25 C): 3.68 log10 K
- log K of transfer, gas to solvent ([1]; Methanol, 25 C): 2.66 log10 K
- log K of transfer, gas to solvent ([1]; Perfluoroalkane, 25 C): 2.45 log10 K
- log K of transfer, gas to solvent ([1]; Propan-1-ol, 25 C): 2.95 log10 K
- log K of transfer, gas to solvent ([1]; Propan-2-ol, 25 C): 2.95 log10 K
- log K of transfer, gas to solvent ([1]; Propanone, 25 C): 3.03 log10 K
- log K of transfer, gas to solvent ([1]; Propionitrile, 25 C): 2.83 log10 K
- log K of transfer, gas to solvent ([1]; Tetrahydrofuran, 25 C): 3.59 log10 K
- log K of transfer, gas to solvent ([1]; Water, 25 C): -1.88 log10 K
- log K of transfer, water to solvent ([2]; 1,2-Dichloroethane, 25 C): 5.07 log10 K
- log K of transfer, water to solvent ([2]; Acetone, 25 C): 4.91 log10 K
- log K of transfer, water to solvent ([2]; Acetonitrile, 25 C): 4.39 log10 K
- log K of transfer, water to solvent ([2]; Butan-1-ol, 25 C): 4.98 log10 K
- log K of transfer, water to solvent ([2]; Butanone, 25 C): 5.1 log10 K
- log K of transfer, water to solvent ([2]; Butyronitrile, 25 C): 4.89 log10 K
- log K of transfer, water to solvent ([2]; CCl4, 25 C): 5.6 log10 K
- log K of transfer, water to solvent ([2]; Chlorobenzene, 25 C): 5.57 log10 K
- log K of transfer, water to solvent ([2]; Chloroform, 25 C): 5.51 log10 K
- log K of transfer, water to solvent ([2]; Cyclohexanone, 25 C): 5.03 log10 K
- log K of transfer, water to solvent ([2]; Dichloromethane, 25 C): 5.35 log10 K
- log K of transfer, water to solvent ([2]; Ethanol, 25 C): 4.82 log10 K
- log K of transfer, water to solvent ([2]; Hexadecane, 25 C): 5.36 log10 K
- log K of transfer, water to solvent ([2]; Hexane, 25 C): 5.56 log10 K
- log K of transfer, water to solvent ([2]; Methanol, 25 C): 4.54 log10 K
- log K of transfer, water to solvent ([2]; Perfluoroalkane, 25 C): 4.33 log10 K
- log K of transfer, water to solvent ([2]; Propan-1-ol, 25 C): 4.83 log10 K
- log K of transfer, water to solvent ([2]; Propan-2-ol, 25 C): 4.83 log10 K
- log K of transfer, water to solvent ([2]; Propionitrile, 25 C): 4.71 log10 K
- log K of transfer, water to solvent ([2]; Tetrahydrofuran, 25 C): 5.47 log10 K
- log K of transfer, water to solvent [3]: 4.8 log10 K

Structure (SMILES): c1ccc2cc3ccccc3cc2c1
- log K of transfer, gas to solvent ([1]; 2-Methylpropan-1-ol, 25 C): 7.16 log10 K
- log K of transfer, gas to solvent ([1]; 2-Methylpropan-2-ol, 25 C): 7.12 log10 K
- log K of transfer, gas to solvent ([1]; 3-Methylbutan-1-ol, 25 C): 7.28 log10 K
- log K of transfer, gas to solvent ([1]; Acetonitrile, 25 C): 7.66 log10 K
- log K of transfer, gas to solvent ([1]; Benzene, 25 C): 8.38 log10 K
- log K of transfer, gas to solvent ([1]; Butan-1-ol, 25 C): 7.42 log10 K
- log K of transfer, gas to solvent ([1]; Butan-2-ol, 25 C): 7.26 log10 K
- log K of transfer, gas to solvent ([1]; Butanone, 25 C): 8.32 log10 K
- log K of transfer, gas to solvent ([1]; Butyronitrile, 25 C): 8.17 log10 K
- log K of transfer, gas to solvent ([1]; CCl4, 25 C): 8.17 log10 K
- log K of transfer, gas to solvent ([1]; Chlorobenzene, 25 C): 8.45 log10 K
- log K of transfer, gas to solvent ([1]; Chloroform, 25 C): 8.4 log10 K
- log K of transfer, gas to solvent ([1]; Cyclohexane, 25 C): 7.52 log10 K
- log K of transfer, gas to solvent ([1]; Cyclohexanone, 25 C): 8.53 log10 K
- log K of transfer, gas to solvent ([1]; Decan-1-ol, 25 C): 7.71 log10 K
- log K of transfer, gas to solvent ([1]; Di-n-butyl ether, 25 C): 7.79 log10 K
- log K of transfer, gas to solvent ([1]; Dichloromethane, 25 C): 8.62 log10 K
- log K of transfer, gas to solvent ([1]; Diethyl Ether, 25 C): 7.97 log10 K
- log K of transfer, gas to solvent ([1]; Ethanol, 25 C): 7.62 log10 K
- log K of transfer, gas to solvent ([1]; Heptan-1-ol, 25 C): 7.58 log10 K
- log K of transfer, gas to solvent ([1]; Hexadecane, 25 C): 7.56 log10 K
- log K of transfer, gas to solvent ([1]; Hexan-1-ol, 25 C): 7.53 log10 K
- log K of transfer, gas to solvent ([1]; Hexane, 25 C): 7.45 log10 K
- log K of transfer, gas to solvent ([1]; Methanol, 25 C): 7.25 log10 K
- log K of transfer, gas to solvent ([1]; Octan-1-ol, 25 C): 7.55 log10 K
- log K of transfer, gas to solvent ([1]; Pentan-1-ol, 25 C): 7.46 log10 K
- log K of transfer, gas to solvent ([1]; Propan-1-ol, 25 C): 7.36 log10 K
- log K of transfer, gas to solvent ([1]; Propan-2-ol, 25 C): 7.36 log10 K
- log K of transfer, gas to solvent ([1]; Propanone, 25 C): 8.22 log10 K
- log K of transfer, gas to solvent ([1]; Propionitrile, 25 C): 8.07 log10 K
- log K of transfer, gas to solvent ([1]; Tetrahydrofuran, 25 C): 8.71 log10 K
- log K of transfer, gas to solvent ([1]; Toluene, 25 C): 8.3 log10 K
- log K of transfer, gas to solvent ([1]; Water, 25 C): 3.03 log10 K
- log K of transfer, water to solvent ([2]; 2-Methylpropan-1-ol, 25 C): 4.13 log10 K
- log K of transfer, water to solvent ([2]; 2-Methylpropan-2-ol, 25 C): 4.09 log10 K
- log K of transfer, water to solvent ([2]; 3-Methylbutan-1-ol, 25 C): 4.25 log10 K
- log K of transfer, water to solvent ([2]; Acetone, 25 C): 5.19 log10 K
- log K of transfer, water to solvent ([2]; Acetonitrile, 25 C): 4.63 log10 K
- log K of transfer, water to solvent ([2]; Benzene, 25 C): 5.35 log10 K
- log K of transfer, water to solvent ([2]; Butan-1-ol, 25 C): 4.39 log10 K
- log K of transfer, water to solvent ([2]; Butan-2-ol, 25 C): 4.23 log10 K
- log K of transfer, water to solvent ([2]; Butanone, 25 C): 5.29 log10 K
- log K of transfer, water to solvent ([2]; Butyronitrile, 25 C): 5.14 log10 K
- log K of transfer, water to solvent ([2]; CCl4, 25 C): 5.14 log10 K
- log K of transfer, water to solvent ([2]; Chlorobenzene, 25 C): 5.42 log10 K
- log K of transfer, water to solvent ([2]; Chloroform, 25 C): 5.37 log10 K
- log K of transfer, water to solvent ([2]; Cyclohexane, 25 C): 4.49 log10 K
- log K of transfer, water to solvent ([2]; Cyclohexanone, 25 C): 5.5 log10 K
- log K of transfer, water to solvent ([2]; Decan-1-ol, 25 C): 4.68 log10 K
- log K of transfer, water to solvent ([2]; Di-n-butyl ether, 25 C): 4.76 log10 K
- log K of transfer, water to solvent ([2]; Dichloromethane, 25 C): 5.59 log10 K
- log K of transfer, water to solvent ([2]; Diethyl Ether, 25 C): 4.94 log10 K
- log K of transfer, water to solvent ([2]; Ethanol, 25 C): 4.59 log10 K
- log K of transfer, water to solvent ([2]; Heptan-1-ol, 25 C): 4.55 log10 K
- log K of transfer, water to solvent ([2]; Hexadecane, 25 C): 4.54 log10 K
- log K of transfer, water to solvent ([2]; Hexan-1-ol, 25 C): 4.5 log10 K
- log K of transfer, water to solvent ([2]; Hexane, 25 C): 4.42 log10 K
- log K of transfer, water to solvent ([2]; Methanol, 25 C): 4.22 log10 K
- log K of transfer, water to solvent ([2]; Octan-1-ol(dry), 25 C): 4.52 log10 K
- log K of transfer, water to solvent ([2]; Pentan-1-ol, 25 C): 4.43 log10 K
- log K of transfer, water to solvent ([2]; Propan-1-ol, 25 C): 4.33 log10 K
- log K of transfer, water to solvent ([2]; Propan-2-ol, 25 C): 4.33 log10 K
- log K of transfer, water to solvent ([2]; Propionitrile, 25 C): 5.04 log10 K
- log K of transfer, water to solvent ([2]; Tetrahydrofuran, 25 C): 5.68 log10 K
- log K of transfer, water to solvent ([2]; Toluene, 25 C): 5.27 log10 K
- log K of transfer, water to solvent [3]: 4.45 log10 K

Structure (SMILES): COC
- log K of transfer, gas to solvent ([1]; 2-Methylpropan-1-ol, 25 C): 1.54 log10 K
- log K of transfer, gas to solvent ([1]; 2-Methylpropan-2-ol, 25 C): 1.65 log10 K
- log K of transfer, gas to solvent ([1]; 3-Methylbutan-1-ol, 25 C): 1.46 log10 K
- log K of transfer, gas to solvent ([1]; Butan-1-ol, 25 C): 1.5 log10 K
- log K of transfer, gas to solvent ([1]; Butan-2-ol, 25 C): 1.54 log10 K
- log K of transfer, gas to solvent ([1]; Chlorobenzene, 25 C): 1.6 log10 K
- log K of transfer, gas to solvent ([1]; Hexadecane, 25 C): 1.28 log10 K
- log K of transfer, gas to solvent ([1]; Hexane, 25 C): 1.31 log10 K
- log K of transfer, gas to solvent ([1]; Methanol, 25 C): 1.69 log10 K
- log K of transfer, gas to solvent ([1]; Octan-1-ol, 25 C): 1.37 log10 K
- log K of transfer, gas to solvent ([1]; Pentan-1-ol, 25 C): 1.45 log10 K
- log K of transfer, gas to solvent ([1]; Propan-2-ol, 25 C): 1.56 log10 K
- log K of transfer, gas to solvent ([1]; Water, 25 C): 1.4 log10 K
- log K of transfer, water to solvent ([2]; 2-Methylpropan-1-ol, 25 C): 0.14 log10 K
- log K of transfer, water to solvent ([2]; 2-Methylpropan-2-ol, 25 C): 0.25 log10 K
- log K of transfer, water to solvent ([2]; 3-Methylbutan-1-ol, 25 C): 0.057 log10 K
- log K of transfer, water to solvent ([2]; Butan-1-ol, 25 C): 0.0999 log10 K
- log K of transfer, water to solvent ([2]; Butan-2-ol, 25 C): 0.14 log10 K
- log K of transfer, water to solvent ([2]; Chlorobenzene, 25 C): 0.2 log10 K
- log K of transfer, water to solvent ([2]; Hexadecane, 25 C): -0.115 log10 K
- log K of transfer, water to solvent ([2]; Hexane, 25 C): -0.087 log10 K
- log K of transfer, water to solvent ([2]; Methanol, 25 C): 0.29 log10 K
- log K of transfer, water to solvent ([2]; Octan-1-ol(dry), 25 C): -0.03 log10 K
- log K of transfer, water to solvent ([2]; Pentan-1-ol, 25 C): 0.05 log10 K
- log K of transfer, water to solvent ([2]; Propan-2-ol, 25 C): 0.16 log10 K
- log K of transfer, water to solvent [3]: 0.0999 log10 K
